Reference: patent publication US11648289B2, “Antibacterial method” (priority 2016, dated 2023)
No end group written: not given here.

Tests used:
KAVA = test: MIC microtitre plate assay, pathogenic isolates; type: cell-based; details: KAVA
Description: The tested strains were obtained from the LMG collection. […] NisinZ and micrococcin P1 were purified from source. […] Garvicin KS is made up of 3 peptides:
(§1) Bacteriocin activity was determined using a microtitre plate assay. The plates were incubated at 30° C. for 8 h and the growth was measured spectrophotometrically at 600 nm (A600) with 15 min intervals using SPECTROstarNano (BMG LABTECH, Germany).

Sa ATCC 33591 = test: microbe, parasite or virus in culture; details: Sa ATCC 33591 (S. aureus)
Description: (§2) All the strains (see below) used in minimal inhibitory concentration (MIC) assays (Ovchinnikov et al., 2017, Front Microbiol., 8, p774, doi:10.3389/fmicb.2017.00774) were grown in BHI medium (Oxoid) at 30° C. without shaking. The tested strains were obtained from the LMG collection. […] NisinZ and micrococcin P1 were purified from source. Synthesized peptides were solubilized to concentrations of 10.0-0.1 mg/ml in 0.1% (vol/vol) trifluoroacetic acid and stored at −20° C. until use. Garvicin KS is made up of 3 peptides:
as §1, with “Germany). The MIC was defined as the bacteriocin concentration that inhibited the growth of the indicator strain by at least 50% in 200 μl culture (i.e., 50% of the turbidity of the control culture without bacteriocin).” for “Germany).”

Sa3324 = test: microbe, parasite or virus in culture; details: Sa3324 (S. aureus)
Description: as §2
as §1, with “Germany). The MIC was defined as the bacteriocin concentration that inhibited the growth of the indicator strain by at least 50% in 200 μl culture (i.e., 50% of the turbidity of the control culture without bacteriocin).” for “Germany).”

SH 4016 = test: microbe, parasite or virus in culture; details: SH 4016 (S. haemolyticus)
Description: as §2
as §1, with “Germany). The MIC was defined as the bacteriocin concentration that inhibited the growth of the indicator strain by at least 50% in 200 μl culture (i.e., 50% of the turbidity of the control culture without bacteriocin).” for “Germany).”

Sa 3242 = test: microbe, parasite or virus in culture; details: Sa 3242 (S. aureus)
Description: as §2
as §1, with “Germany). The MIC was defined as the bacteriocin concentration that inhibited the growth of the indicator strain by at least 50% in 200 μl culture (i.e., 50% of the turbidity of the control culture without bacteriocin).” for “Germany).”

SH 4015 = test: microbe, parasite or virus in culture; details: SH 4015 (S. haemolyticus)
Description: as §2
as §1, with “Germany). The MIC was defined as the bacteriocin concentration that inhibited the growth of the indicator strain by at least 50% in 200 μl culture (i.e., 50% of the turbidity of the control culture without bacteriocin).” for “Germany).”

Sa3323 = test: microbe, parasite or virus in culture; details: Sa3323 (S. aureus)
Description: as §2
as §1, with “Germany). The MIC was defined as the bacteriocin concentration that inhibited the growth of the indicator strain by at least 50% in 200 μl culture (i.e., 50% of the turbidity of the control culture without bacteriocin).” for “Germany).”

MLAKIKAMIKKFPNPYTLAAKLTTYEINWYKQQYGRYPWERPVA [EntEJ97]
MIC (KAVA): >50 µg/mL
MIC (Sa ATCC 33591): >50 µg/mL
MIC (Sa3324): 12.5 µg/mL
MIC (SH 4016): 12.5 µg/mL
MIC (Sa 3242): 6.25 µg/mL
MIC (SH 4015): 12.5 µg/mL
MIC (Sa3323): 6.25 µg/mL
